# From patent US9695155B2, “Herbicidal substituted pyrimidinyloxy benzene compounds” (E. I. DU PONT DE NEMOURS AND COMPANY, priority 2013, dated 2017)
# Tests used:
# chamomile = assay: Test D preemergence; assay type: in vivo, Matricaria inodora; conditions: Tripleurospermum inodorum, pre-emergence
# Excerpt: (§1) Seeds of plant species selected from bluegrass (annual bluegrass, Poa annua), blackgrass (Alopecurus myosuroides), canarygrass (littleseed canarygrass, Phalaris minor), chickweed (common chickweed, Stellaria media), galium (catchweed bedstraw, Galium aparine), bromegrass, downy (downy bromegrass, Bromus tectorum), field poppy (Papaver rhoeas), field violet (Viola arvensis), green foxtail (Setaria viridis), deadnettle (henbit deadnettle, Lamium amplexicaule), Italian ryegrass (Lolium multiflorum), kochia (Kochia scoparia), lambsquarters (Chenopodium album), oilseed rape (Brassica napus), pigweed (Amaranthus retroflexus), chamomile (scentless chamomile, Matricaria inodora), Russian thistle (Salsola kali), speedwell (bird's-eye speedwell, Veronica persica), spring barley (Hordeum vulgare), spring wheat (Triticum aestivum), wild buckwheat (Polygonum convolvulus), wild mustard (Sinapis arvensis), wild oat (Avena fatua), wild radish (Raphanus raphanistrum), windgrass (Apera spica-venti), winter barley (Hordeum vulgare), and winter wheat (Triticum aestivum) were planted into a silt loam soil and treated preemergence with test chemicals formulated in a non-phytotoxic solvent mixture which included a surfactant.
# (§2) At the same time, these species were planted in pots containing Redi-Earth® planting medium (Scotts Company, 14111 Scottslawn Road, Marysville, Ohio 43041) comprising spaghnum peat moss, vermiculite, wetting agent and starter nutrients and treated with postemergence applications of the test chemicals formulated in the same manner. Plants ranged in height from 2 to 18 cm (1- to 4-leaf stage). Treated plants and controls were maintained in a controlled growth environment for 7 to 21 days after which time all species were compared to controls and visually evaluated. Plant response ratings, summarized in Table D, are based on a scale of 0 to 100 where 0 is no effect and 100 is complete control. A dash (-) response means no test result.
# canarygrass = assay: Test D postemergence; assay type: in vivo, Phalaris minor; conditions: Phalaris minor, post-emergence
# How it was run: (§3)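 Solvent/surfactant formulations are sprayed pre (silt loam) or post (1–4 leaf plants, 2–18 cm). Plants stay 7–21 days in controlled conditions before a visual 0–100 score is given.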
# galium = assay: Test D postemergence; assay type: in vivo, Galium aparine; conditions: Galium, post-emergence
# How it was run: as §3
# Italian ryegrass = assay: Test D postemergence; assay type: in vivo, Lolium multiflorum; conditions: Lolium multiflorum, post-emergence
# Excerpt: as §1, §2
# speedwell = assay: Test D postemergence; assay type: in vivo, Veronica persica; conditions: Veronica persica, post-emergence
# How it was run: as §3
# surinam grass = assay: Test F preemergence; assay type: in vivo, Brachiaria decumbens; conditions: 21 days, scale 0 to 100
# Excerpt: (§4) Seeds of plant species selected from bermudagrass (Cynodon dactylon), surinam grass (Brachiaria decumbens), large (Lg) crabgrass (Digitaria sanguinalis), crabgrass, naked (naked crabgrass, Digitaria nuda), foxtail, green (green foxtail, Setaria viridis), johnsongrass (Sorghum halepense), kochia (Kochia scoparia), morningglory (pitted morningglory, Ipomoea lacunosa), nutsedge, purple (purple nutsedge, Cyperus rotundus), ragweed (common ragweed, Ambrosia elatior), mustard, black (black mustard, Brassica nigra), guineagrass (Panicum maximum), dallisgrass (Paspalum dilatatum), barnyardgrass (Echinochloa crus-galli), sandbur (southern sandbur, Cenchrus echinatus), sowthistle (common sowthistle, Sonchus oleraceous), Italian ryegrass (Lolium multiflorum), signalgrass (broadleaf signalgrass, Brachiaria platyphylla), dayflower (Virginia (VA) dayflower, Commelina virginica), bluegrass (annual bluegrass, Poa annua), quackgrass (Elytrigia repens), mallow (common mallow, Malva sylvestris), buckwheat, wild (wild buckwheat, Polygonum convolvulus), leafy spurge (Euphorbia esula), chickweed (common chickweed, Stellaria media), wild poinsettia (Euphorbia heterophylla), and pigweed (Amaranthus retroflexus) were planted into a blend of loam soil and sand and treated preemergence with test chemicals formulated in a non-phytotoxic solvent mixture which included a surfactant.
# (§5) Treated plants and controls were maintained in a greenhouse for 21 days, after which time all species were compared to controls and visually evaluated. Plant response ratings, summarized in Table F, are based on a scale of 0 to 100 where 0 is no effect and 100 is complete control. A dash (-) response means no test result.
# large (Lg) crabgrass = assay: Test F preemergence; assay type: in vivo, Digitaria sanguinalis; conditions: 21 days, scale 0 to 100
# Excerpt: as §4, §5
# crabgrass, naked = assay: Test F preemergence; assay type: in vivo, Digitaria nuda; conditions: 21 days, scale 0 to 100
# Excerpt: as §4, §5
# johnsongrass = assay: Test F preemergence; assay type: in vivo, Sorghum halepense; conditions: 21 days, scale 0 to 100
# Excerpt: as §4, §5
# nutsedge, purple = assay: Test F preemergence; assay type: in vivo, Cyperus rotundus; conditions: 21 days, scale 0 to 100
# Excerpt: as §4, §5
# barnyardgrass = assay: Test F preemergence; assay type: in vivo, Echinochloa crus-galli; conditions: 21 days, scale 0 to 100
# How it was run: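 Preemergence application to seeded loam–sand soil, with compound delivered in a non-phytotoxic solvent plus surfactant; weed control assessed visually at 21 days (0–100 scale).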
structure (smiles),measurement,setting,value
"N#Cc1cccc(Oc2ncc(Cl)cn2)c1-n1cc(OCC(F)(F)F)cn1 [Compound 274, 3-[(5-chloro-2-pyrimidinyl)oxy]-2-[4-(2,2,2-trifluoroethoxy)-1H-pyrazol-1-yl]benzonitrile]",pest or weed control at 16 g/ha,"chamomile; 16 g ai/ha, scale 0 (no effect) to 100 (complete control), read-out: Plant response rating, Chamomile",5%
same,pest or weed control at 62 g/ha,"chamomile; 62 g ai/ha, scale 0-100, read-out: Plant response rating, Chamomile",35%
same,pest or weed control at 125 g/ha,"chamomile; 125 g ai/ha, scale 0-100, read-out: Plant response rating, Chamomile",65%
same,pest or weed control at 16 g/ha,"canarygrass; 16 g ai/ha, scale 0-100, read-out: Plant response rating, Canarygrass",15%
same,pest or weed control at 31 g/ha,"canarygrass; 31 g ai/ha, scale 0 to 100 (0 no effect, 100 complete control), read-out: Plant response rating, Canarygrass",20%
same,pest or weed control at 62 g/ha,"canarygrass; 62 g ai/ha, scale 0 to 100 (0 no effect, 100 complete control), read-out: Plant response rating, Canarygrass",25%
same,pest or weed control at 125 g/ha,"canarygrass; 125 g ai/ha, scale 0 to 100 (0 no effect, 100 complete control), read-out: Plant response rating, Canarygrass",30%
same,pest or weed control at 16 g/ha,"galium; 16 g ai/ha, scale 0-100, read-out: Plant response rating, Galium",70%
same,pest or weed control at 31 g/ha,"galium; 31 g ai/ha, scale 0 to 100 (0 no effect, 100 complete control), read-out: Plant response rating, Galium",70%
same,pest or weed control at 62 g/ha,"galium; 62 g ai/ha, scale 0 to 100 (0 no effect, 100 complete control), read-out: Plant response rating, Galium",75%
same,pest or weed control at 125 g/ha,"galium; 125 g ai/ha, scale 0 to 100 (0 no effect, 100 complete control), read-out: Plant response rating, Galium",85%
same,pest or weed control at 16 g/ha,"Italian ryegrass; 16 g ai/ha, scale 0-100, read-out: Plant response rating, Ryegrass, Italian",15%
same,pest or weed control at 31 g/ha,"Italian ryegrass; 31 g ai/ha, scale 0 to 100 (0 no effect, 100 complete control), read-out: Plant response rating, Ryegrass, Italian",25%
same,pest or weed control at 62 g/ha,"Italian ryegrass; 62 g ai/ha, scale 0 to 100 (0 no effect, 100 complete control), read-out: Plant response rating, Ryegrass, Italian",35%
same,pest or weed control at 125 g/ha,"Italian ryegrass; 125 g ai/ha, scale 0 to 100 (0 no effect, 100 complete control), read-out: Plant response rating, Ryegrass, Italian",35%
same,pest or weed control at 16 g/ha,"speedwell; 16 g ai/ha, scale 0-100, read-out: Plant response rating, Speedwell",75%
same,pest or weed control at 31 g/ha,"speedwell; 31 g ai/ha, scale 0 to 100 (0 no effect, 100 complete control), read-out: Plant response rating, Speedwell",100%
same,pest or weed control at 62 g/ha,"speedwell; 62 g ai/ha, scale 0 to 100 (0 no effect, 100 complete control), read-out: Plant response rating, Speedwell",85%
same,pest or weed control at 125 g/ha,"speedwell; 125 g ai/ha, scale 0 to 100 (0 no effect, 100 complete control), read-out: Plant response rating, Speedwell",100%
same,"Plant response rating, Surinam Grass",surinam grass; 16 g ai/ha,10
same,"Plant response rating, Surinam Grass",surinam grass; 31 g ai/ha,35
same,"Plant response rating, Surinam Grass",surinam grass; 62 g ai/ha,70
same,"Plant response rating, Surinam Grass",surinam grass; 125 g ai/ha,100
same,"Plant response rating, Surinam Grass",surinam grass; 250 g ai/ha,100
same,"Plant response rating, Crabgrass, Large",large (Lg) crabgrass; 16 g ai/ha,100
same,"Plant response rating, Crabgrass, Large",large (Lg) crabgrass; 31 g ai/ha,100
same,"Plant response rating, Crabgrass, Large",large (Lg) crabgrass; 62 g ai/ha,100
same,"Plant response rating, Crabgrass, Large",large (Lg) crabgrass; 125 g ai/ha,100
same,"Plant response rating, Crabgrass, Large",large (Lg) crabgrass; 250 g ai/ha,100
same,"Plant response rating, Crabgrass, Naked","crabgrass, naked; 16 g ai/ha",100
same,"Plant response rating, Crabgrass, Naked","crabgrass, naked; 31 g ai/ha",100
same,"Plant response rating, Crabgrass, Naked","crabgrass, naked; 62 g ai/ha",100
same,"Plant response rating, Crabgrass, Naked","crabgrass, naked; 125 g ai/ha",100
same,"Plant response rating, Crabgrass, Naked","crabgrass, naked; 250 g ai/ha",100
same,"Plant response rating, Johnsongrass",johnsongrass; 16 g ai/ha,65
same,"Plant response rating, Johnsongrass",johnsongrass; 31 g ai/ha,70
same,"Plant response rating, Johnsongrass",johnsongrass; 62 g ai/ha,100
same,"Plant response rating, Johnsongrass",johnsongrass; 125 g ai/ha,100
same,"Plant response rating, Johnsongrass",johnsongrass; 250 g ai/ha,100
same,"Plant response rating, Nutsedge, Purple","nutsedge, purple; 16 g ai/ha",35
same,"Plant response rating, Nutsedge, Purple","nutsedge, purple; 31 g ai/ha",50
same,"Plant response rating, Nutsedge, Purple","nutsedge, purple; 62 g ai/ha",65
same,"Plant response rating, Nutsedge, Purple","nutsedge, purple; 125 g ai/ha",85
same,"Plant response rating, Nutsedge, Purple","nutsedge, purple; 250 g ai/ha",98
same,"Plant response rating, Barnyardgrass",barnyardgrass; 16 g ai/ha,75
same,"Plant response rating, Barnyardgrass",barnyardgrass; 31 g ai/ha,100
same,"Plant response rating, Barnyardgrass",barnyardgrass; 62 g ai/ha,100
same,"Plant response rating, Barnyardgrass",barnyardgrass; 125 g ai/ha,100
same,"Plant response rating, Barnyardgrass",barnyardgrass; 250 g ai/ha,100
